Measured values from patent US20220389355A1, “CELL AGGREGATE, PRODUCING METHOD FOR MANUFACTURING CELL AGGREGATE, PRODUCING KIT FOR CELL AGGREGATE, AND CHEMICAL COMPOUND EVALUATING METHOD USING CELL AGGREGATE” (THE JAPAN WOOL TEXTILE CO., LTD., priority 2019, published 2022).
Like-named read-outs stand apart in the source and are kept apart here.

How the values were obtained:
[1] = test system: cardiomyocyte multicellular construct (human iPS cell derived cardiomyocytes); assay: Example 8: contractile force of cardiomyocyte multicellular construct, ratio of specimens with halved contractile force; conditions: alone or with azithromycin fixed to 3 μM; for Ratio of specimens whose contractile force decreased to half of that before the addition, Dose 1 (%): Dose 1 of Table 5: azithromycin 1 μM, chloroquine or hydroxychloroquine 0.3 μM; for Ratio of specimens whose contractile force decreased to half of that before the addition, Dose 2 (%): Dose 2 of Table 5: azithromycin 3 μM, chloroquine or hydroxychloroquine 1 μM; for Ratio of specimens whose contractile force decreased to half of that before the addition, Dose 3 (%): Dose 3 of Table 5: azithromycin 10 μM, chloroquine or hydroxychloroquine 3 μM
[2] = test system: cardiomyocyte multicellular construct (human iPS cell derived cardiomyocytes); assay: Example 8: calcium imaging, ratio of specimens with arrhythmia waveform; conditions: for Ratio of specimens that exhibited the calcium ion signal waveform corresponding to arrhythmia, Dose 1 (%): Dose 1 of Table 5: azithromycin 1 μM, chloroquine or hydroxychloroquine 0.3 μM; for Ratio of specimens that exhibited the calcium ion signal waveform corresponding to arrhythmia, Dose 1 (%) / Ratio of specimens that exhibited the calcium ion signal waveform corresponding to arrhythmia, Dose 2 (%) / Ratio of specimens that exhibited the calcium ion signal waveform corresponding to arrhythmia, Dose 3 (%) / Ratio of specimens that exhibited the calcium ion signal waveform corresponding to arrhythmia, Dose 4 (%): alone or with azithromycin fixed to 3 μM; for Ratio of specimens that exhibited the calcium ion signal waveform corresponding to arrhythmia, Dose 2 (%): Dose 2 of Table 5: azithromycin 3 μM, chloroquine or hydroxychloroquine 1 μM; for Ratio of specimens that exhibited the calcium ion signal waveform corresponding to arrhythmia, Dose 3 (%): Dose 3 of Table 5: azithromycin 10 μM, chloroquine or hydroxychloroquine 3 μM; for Ratio of specimens that exhibited the calcium ion signal waveform corresponding to arrhythmia, Dose 4 (%): Dose 4 of Table 5: chloroquine or hydroxychloroquine 10 μM, azithromycin alone: no Dose 4 in Table 5
[3] = test system: cardiomyocyte multicellular construct (human iPS cell derived cardiomyocytes)
[4] = test system: cardiomyocyte multicellular construct (human iPS cell derived cardiomyocytes); assay: Example 7: contractile force and contraction-relaxation rate of cardiomyocyte multicellular construct (MUSCLEMOTION); type: cell-based; conditions: 1000 nM, seventh day of the culture
[5] = test system: cardiomyocyte multicellular construct (human iPS cell derived cardiomyocytes); assay: Example 7: calcium imaging evaluation of response of cardiomyocyte multicellular construct against compound; type: cell-based; conditions: seventh day of the culture; for Calcium ion signal waveform compared with before the addition: 1000 nM, cumulative addition, 10 minutes after addition; for Beating rate compared with before the addition: cumulative addition 1 to 1000 nM
Method: Cells were seeded and cultured in the same manner as in Example 6, except that the cells were seeded such that the seeding amount per unit area of the scaffold was 6000 cells/mm^2.
On the sixth day of the culture, the cardiomyocyte multicellular construct was placed such that a surface containing more cells faced the bottom surface of a culture dish (IWAKI Multiwell Plate, Non-treated surface for suspension cell culture 6. Well), and was then left to stand for a day. On the seventh day of the culture, a calcium indicator (EarlyTox Cardiotoxicity Kit, Molecular Devices LLC) was added to the culture medium at a volume ratio of 25/100 to fluorescently stain calcium ions in the cardiomyocytes.
The fluorescence intensities in the entire 10-fold magnified visual fields of the obtained images were plotted versus time using an analysis software CellPathfinder, Yokogawa Electric Corp.), and thus signal waveforms of calcium ions in the cardiomyocytes were obtained. Verapamil is a Ca channel antagonist having an Ikr inhibitory effect.

[6] = test system: human iPS cell derived cardiomyocyte multicellular construct; assay: Example 5: calcium ion imaging of multicellular construct, response against isoproterenol; type: cell-based; conditions: 100 nM, 5 minutes after addition, fourth day of the culture; 60 bpm before the addition
Method: Cells were seeded in the same manner as in Example 4, and a liquid culture medium was added 4 hours later to start cell culturing. On the fourth day of the culture, a calcium indicator (EarlyTox Cardiotoxicity Kit, Molecular Devices LLC.) was added to the culture medium at a volume ratio of 5/100 to fluorescently stain calcium ions in the cardiomyocytes.
Videos were captured at 20 FPS using a confocal imaging confocal imaging system (CellVoyager CQ1, Yokogawa Electric Corp.). Fluorescent areas in the obtained videos were recognized using an analysis software CellPathfinder, Yokogawa Electric Corp.), and signal waveforms of calcium ions in the cardiomyocytes were obtained by plotting the fluorescence intensities versus time.

Structure (SMILES) | Ratio of specimens whose contractile force decreased to half of that before the addition, Dose 1 (%) [1] [%] | Ratio of specimens whose contractile force decreased to half of that before the addition, Dose 2 (%) [1] [%] | Ratio of specimens whose contractile force decreased to half of that before the addition, Dose 3 (%) [1] [%] | Ratio of specimens that exhibited the calcium ion signal waveform corresponding to arrhythmia, Dose 1 (%) [2] [%] | Ratio of specimens that exhibited the calcium ion signal waveform corresponding to arrhythmia, Dose 2 (%) [2] [%] | Ratio of specimens that exhibited the calcium ion signal waveform corresponding to arrhythmia, Dose 3 (%) [2] [%] | Ratio of specimens that exhibited the calcium ion signal waveform corresponding to arrhythmia, Dose 4 (%) [2] [%] | Contractile force compared with before the addition [4] | Contraction-relaxation rate compared with before the addition [4] | Calcium ion signal waveform compared with before the addition [5] | Beating rate compared with before the addition [5] | also measured
CC[C@H]1OC(=O)[C@H](C)[C@@H](O[C@H]2C[C@@](C)(OC)[C@@H](O)[C@H](C)O2)[C@H](C)[C@@H](O[C@@H]2O[C@H](C)C[C@H](N(C)C)[C@H]2O)[C@](C)(O)C[C@@H](C)CN(C)[C@H](C)[C@@H](O)[C@]1(C)O [Azithromycin, azithromycin] | 0 | 0 | 100 | 0 | 0 | 0 | 0 | – | – | – | – | –
CCN(CC)CCCC(C)Nc1ccnc2cc(Cl)ccc12 (stereo not drawn) [Chloroquine, chloroquine] | – | – | – | – | – | – | – | – | – | – | – | Risk of arrhythmia (conclusion from FIG. 20 and Table 6) [3]: increase the risk of arrhythmia
Cc1cccc(CCN2CCC(C(=O)c3ccc(NS(C)(=O)=O)cc3)CC2)n1 [Example E-4031] | – | – | – | – | – | – | – | decreased | decreased | became flattened | decreased | –
CCN(CCO)CCCC(C)Nc1ccnc2cc(Cl)ccc12 (stereo not drawn) [Hydroxychloroquine, hydroxychloroquine] | 0 | 0 | 20 | 0 | 0 | 20 | 80 | – | – | – | – | Ratio of specimens whose contractile force decreased to half of that before the addition, Dose 4 (%) ([1]; Dose 4 of Table 5: chloroquine or hydroxychloroquine 10 μM): 100%; Risk of arrhythmia (conclusion from FIG. 20 and Table 6) ([2]; concentrations of Table 5): increase the risk of arrhythmia
CC(C)NCC(O)c1ccc(O)c(O)c1 (stereo not drawn) [Isoproterenol, isoproterenol] | – | – | – | – | – | – | – | increased | increased | became sharper | increased | Beating rate after the addition [6]: 76 bpm
COc1ccc(CCN(C)CCCC(C#N)(c2ccc(OC)c(OC)c2)C(C)C)cc1OC (stereo not drawn) [Verapamil, verapamil] | – | – | – | – | – | – | – | decreased | decreased | became smaller | increased | –
